These results are taken from US11208412B2 (DAEGU-GYEONGBUK MEDICAL INNOVATION FOUNDATION, priority 2017, dated 2021).

Holding throughout (assay): Kinase selectivity, DiscoverX scanMAX Kinase assay panel (% control)
Holding throughout (format): binding

Test [1] has as its target T1, kinases of the scanMAX Kinase assay panel (Homo sapiens, UniProt Q13873).
T1 construct: purchased DiscoverX Co. (contract measurement) scanMAX Kinase assay panel
T1 sequence (Q13873 27-1038): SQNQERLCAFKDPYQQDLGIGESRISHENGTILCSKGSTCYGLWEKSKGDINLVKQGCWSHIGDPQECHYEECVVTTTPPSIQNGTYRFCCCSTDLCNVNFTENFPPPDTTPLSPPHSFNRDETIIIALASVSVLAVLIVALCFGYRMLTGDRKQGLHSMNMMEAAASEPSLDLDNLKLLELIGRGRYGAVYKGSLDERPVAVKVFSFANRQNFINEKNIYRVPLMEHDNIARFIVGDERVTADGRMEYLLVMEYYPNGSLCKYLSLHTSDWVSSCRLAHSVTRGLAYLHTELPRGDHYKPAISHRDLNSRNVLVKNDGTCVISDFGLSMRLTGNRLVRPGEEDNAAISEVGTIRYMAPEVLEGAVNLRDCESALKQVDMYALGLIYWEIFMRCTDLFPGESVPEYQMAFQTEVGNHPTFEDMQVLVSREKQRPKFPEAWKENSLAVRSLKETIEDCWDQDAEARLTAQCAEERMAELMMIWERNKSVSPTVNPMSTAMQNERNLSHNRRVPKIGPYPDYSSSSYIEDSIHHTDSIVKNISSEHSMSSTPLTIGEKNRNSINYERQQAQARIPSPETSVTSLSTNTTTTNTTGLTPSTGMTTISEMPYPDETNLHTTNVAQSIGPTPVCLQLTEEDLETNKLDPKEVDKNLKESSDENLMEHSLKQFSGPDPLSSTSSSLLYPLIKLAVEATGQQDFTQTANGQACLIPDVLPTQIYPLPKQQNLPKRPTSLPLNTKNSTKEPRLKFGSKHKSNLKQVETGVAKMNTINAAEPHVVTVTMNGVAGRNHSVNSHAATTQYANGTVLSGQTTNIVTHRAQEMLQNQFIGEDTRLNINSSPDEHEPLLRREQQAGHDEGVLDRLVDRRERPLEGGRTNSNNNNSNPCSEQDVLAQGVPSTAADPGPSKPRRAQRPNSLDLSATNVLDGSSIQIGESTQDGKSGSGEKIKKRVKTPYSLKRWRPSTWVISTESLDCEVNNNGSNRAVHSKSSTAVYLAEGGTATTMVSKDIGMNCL
The following applies: BMPR2; 1 uM. In a few lines:
(§1)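 Binding-panel profiling at one concentration, 1 uM in DMSO; values are % of DMSO control after subtracting the positive-control floor. Less than 35% means activity on that kinase.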

The target in test [2] is T2, kinases of the scanMAX Kinase assay panel (Homo sapiens, UniProt O00329).
T2 construct: purchased DiscoverX Co. (contract measurement) scanMAX Kinase assay panel
T2 sequence (O00329 1-1044): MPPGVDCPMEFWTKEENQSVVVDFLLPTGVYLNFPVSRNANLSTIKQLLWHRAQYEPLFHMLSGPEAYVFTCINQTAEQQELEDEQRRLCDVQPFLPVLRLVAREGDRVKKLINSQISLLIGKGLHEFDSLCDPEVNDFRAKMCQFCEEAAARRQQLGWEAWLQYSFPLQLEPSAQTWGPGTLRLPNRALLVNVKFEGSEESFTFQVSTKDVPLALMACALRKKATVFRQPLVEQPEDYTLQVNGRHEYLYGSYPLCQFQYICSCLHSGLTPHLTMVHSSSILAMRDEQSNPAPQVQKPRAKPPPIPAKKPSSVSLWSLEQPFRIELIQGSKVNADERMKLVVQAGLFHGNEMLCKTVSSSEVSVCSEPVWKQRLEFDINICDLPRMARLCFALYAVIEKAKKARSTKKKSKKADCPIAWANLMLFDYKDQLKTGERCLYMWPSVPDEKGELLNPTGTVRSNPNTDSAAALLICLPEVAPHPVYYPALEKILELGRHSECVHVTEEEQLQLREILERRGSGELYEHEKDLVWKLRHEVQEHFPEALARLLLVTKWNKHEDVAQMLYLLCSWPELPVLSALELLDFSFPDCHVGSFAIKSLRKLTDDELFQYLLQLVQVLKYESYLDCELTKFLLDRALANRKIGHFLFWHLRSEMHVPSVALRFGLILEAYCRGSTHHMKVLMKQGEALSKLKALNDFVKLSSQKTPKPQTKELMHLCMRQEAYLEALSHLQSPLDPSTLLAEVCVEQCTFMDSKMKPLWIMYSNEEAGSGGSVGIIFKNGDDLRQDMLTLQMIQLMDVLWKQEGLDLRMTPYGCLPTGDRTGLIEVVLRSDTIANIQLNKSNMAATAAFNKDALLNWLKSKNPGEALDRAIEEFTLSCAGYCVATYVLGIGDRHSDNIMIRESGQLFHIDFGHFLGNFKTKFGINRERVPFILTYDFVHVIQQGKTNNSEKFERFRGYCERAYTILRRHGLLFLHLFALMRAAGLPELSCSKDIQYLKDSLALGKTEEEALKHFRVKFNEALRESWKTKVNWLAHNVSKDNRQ
Conditions: PIK3CD; 1 uM. In a few lines: as §1

In test [3] the target is T3, kinases of the scanMAX Kinase assay panel (Homo sapiens, UniProt Q9NSY1).
T3 construct: purchased DiscoverX Co. (contract measurement) scanMAX Kinase assay panel
T3 sequence (Q9NSY1 whole entry): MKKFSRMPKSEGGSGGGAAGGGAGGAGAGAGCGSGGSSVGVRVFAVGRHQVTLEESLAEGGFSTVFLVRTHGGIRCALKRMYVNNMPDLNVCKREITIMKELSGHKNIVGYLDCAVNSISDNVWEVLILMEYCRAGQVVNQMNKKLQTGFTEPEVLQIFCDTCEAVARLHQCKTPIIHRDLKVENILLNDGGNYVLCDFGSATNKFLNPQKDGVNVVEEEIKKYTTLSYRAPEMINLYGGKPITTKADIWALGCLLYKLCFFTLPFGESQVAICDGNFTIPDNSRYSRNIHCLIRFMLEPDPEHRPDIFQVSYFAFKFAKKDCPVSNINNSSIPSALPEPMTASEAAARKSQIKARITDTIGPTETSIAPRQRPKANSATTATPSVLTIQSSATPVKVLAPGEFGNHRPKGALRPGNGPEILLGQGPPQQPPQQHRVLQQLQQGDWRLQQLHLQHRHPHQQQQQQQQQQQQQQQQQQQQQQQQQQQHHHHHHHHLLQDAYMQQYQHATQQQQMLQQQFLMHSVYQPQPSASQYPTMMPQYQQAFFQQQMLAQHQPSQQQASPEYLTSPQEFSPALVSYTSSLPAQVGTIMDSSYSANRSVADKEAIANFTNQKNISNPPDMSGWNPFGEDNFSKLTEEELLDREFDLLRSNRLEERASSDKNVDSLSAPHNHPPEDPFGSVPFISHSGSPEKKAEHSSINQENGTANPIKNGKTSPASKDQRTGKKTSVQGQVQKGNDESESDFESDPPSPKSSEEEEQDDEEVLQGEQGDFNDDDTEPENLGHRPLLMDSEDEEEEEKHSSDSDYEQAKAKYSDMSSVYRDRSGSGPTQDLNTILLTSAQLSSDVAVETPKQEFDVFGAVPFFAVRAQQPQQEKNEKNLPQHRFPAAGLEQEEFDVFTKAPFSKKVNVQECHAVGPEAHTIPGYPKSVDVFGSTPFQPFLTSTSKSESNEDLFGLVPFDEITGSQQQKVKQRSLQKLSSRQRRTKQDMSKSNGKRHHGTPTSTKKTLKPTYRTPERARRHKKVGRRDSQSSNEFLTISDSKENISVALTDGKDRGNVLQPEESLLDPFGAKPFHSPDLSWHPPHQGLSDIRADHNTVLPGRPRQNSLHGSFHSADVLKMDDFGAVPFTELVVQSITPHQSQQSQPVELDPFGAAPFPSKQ
Conditions: BIKE; 1 uM. In a few lines: as §1

As to `CC1(Nc2nc(Nc3cnn([C@H]4CCN(C5COC5)C[C@@H]4F)c3Cl)nc3[nH]cc(C#N)c23)CC1` [Example 52, 2-((5-chloro-1-((3S,4S)-3-fluoro-1-(oxetane-3-yl)piperidine-4-yl)-1H-pyrazole-4-yl)amino)((1-methylcyclopropyl)amino)-7H-pyrrolo[2,3-d]pyrimidine-5-carbonitrile], the values for the remaining binding at 1 µM in test [1], in test [2] and in test [3] were 0.65%, 9.4% and 0%, respectively.
The like results for `CCNc1nc(Nc2ccc(C(=O)N3CCC(N4CCOCC4)CC3)cc2OC)nc2[nH]cc(C(F)(F)F)c12` [Example 104, (4-((4-(ethylamino)-5-(trifluoromethyl)-7H-pyrrolo[2,3-d]pyrimidine-2-yl)amino)-3-methoxyphenyl)(4-morpholinopiperidine-1-yl)methanone] were, in that order, 100%, 78% and 100%.
For `CNc1nc(Nc2ccc(C(=O)N3CCOCC3)cc2OC)nc2[nH]cc(C#N)c12` [Example 1, 2-((2-methoxy-4-(morpholine-4-carbonyl)phenyl)amino)-4-(methylamino)-7H-pyrrolo[2,3-d]pyrimidine-5-carbonitrile], in that order: 79%, 99% and 62%.
